Source: US20010047099A1, “4-aminopicolinates and their use as herbicides” (priority 2000, published 2001)

Assays:
[1] = tested on: cocklebur (Xanthium strumarium); assay: Postemergence herbicidal activity; type: in vivo; details: Xanthium strumarium, post-emergence, 336 h, Table 1, visual, after 2 weeks, read-out: Post-emergent % Control XANST; for pest or weed control at 250 ppm: rate 250 ppm; for pest or weed control at 125 ppm: rate 125 ppm
Procedure: (§1) Seeds of the desired test plant species were planted in Grace-Sierra MetroMix® 306 planting mixture, which typically has a pH of 6.0 to 6.8 and an organic matter content of about 30 percent, in plastic pots with a surface area of 64 square centimeters. When required to ensure good germination and healthy plants, a fungicide treatment and/or other chemical or physical treatment was applied. The plants were grown for 7-21 days in a greenhouse with an approximate 15 hr photoperiod which was maintained at about 23-29° C. during the day and 22-28° C. during the night. Nutrients and water were added on a regular basis and supplemental lighting was provided with overhead metal halide 1000-Watt lamps as necessary. The plants were employed for testing when they reached the first or second true leaf stage.
(§2) A weighed amount, determined by the highest rate to be tested, of each test compound was placed in a 20 mL glass vial and was dissolved in 4 mL of a 97:3 v/v (volume/volume) mixture of acetone and dimethyl sulfoxide (DMSO) to obtain concentrated stock solutions. […] The concentrated stock solutions obtained were diluted with an aqueous mixture containing acetone, water, isopropyl alcohol, DMSO, Atplus 411F crop oil concentrate, and Triton X-155 surfactant in a 48.5:39:10:1.5:1.0:0.02 v/v ratio to obtain spray solutions of known concentration. The solutions containing the highest concentration to be tested were prepared by diluting 2 mL aliquots of the stock solution with 13 mL of the mixture and lower concentrations were prepared by serial dilution of the stock solution. Approximately 1.5 mL aliquots of each solution of known concentration were sprayed evenly onto each of the test plant pots using a DeVilbiss atomizer driven by compressed air pressure of 2 to 4 psi ([…]) to obtain thorough coverage of each plant. Control plants were sprayed in the same manner with the aqueous mixture. In this test an application rate of 1 ppm results in the application of approximately 1 g/Ha.
(§3) The treated plants and control plants were placed in a greenhouse as described above and watered by sub-irrigation to prevent wash-off of the test compounds. After 2 weeks the condition of the test plants as compared with that of the untreated plants was determined visually and scored on a scale of 0 to 100 percent where 0 corresponds to no injury and 100 corresponds to complete kill.

[2] = tested on: chickweed (Stellaria media); assay: Postemergence herbicidal activity; type: in vivo; details: Stellaria media, post-emergence, 336 h, Table 1, visual, after 2 weeks, read-out: Post-emergent % Control STEME; for pest or weed control at 250 ppm: rate 250 ppm; for pest or weed control at 125 ppm: rate 125 ppm
Procedure: as §1, §2, §3

[3] = tested on: wild buckwheat (Polygonum convolvulus); assay: Postemergence herbicidal activity; type: in vivo; details: Fallopia convolvulus, post-emergence, 336 h, Table 1, visual, after 2 weeks, read-out: Post-emergent % Control POLCO; for pest or weed control at 250 ppm: rate 250 ppm; for pest or weed control at 125 ppm: rate 125 ppm
Procedure: as §1, §2, §3

[4] = tested on: pigweed (Amaranthus retroflexus); assay: Preemergence herbicidal activity; type: in vivo; details: Amaranthus retroflexus, 504 h, Table 6 (headed Post-emergent; text: preemergence), after 3 weeks, read-out: % Control AMARE; for pest or weed control at 70 ppm: rate 70 ppm; for pest or weed control at 560 ppm: rate 560 ppm
Excerpt: (§4) Seeds of the desired test plant species were planted in a soil matrix prepared by mixing a loam soil (43 percent silt, 19 percent clay, and 38 percent sand, with a pH of about 8.1 and an organic matter content of bout 1.5 percent) and sand in a 70 to 30 ratio. The soil matrix was contained in plastic pots with a surface area of 113 square centimeters. When required to ensure good germination and healthy plants. a fungicide treatment and/or other chemical or physical treatment was applied.
(§5) A weighed amount, determined by the highest rate to be tested, of each test compound was placed in a 20 mL glass vial and was dissolved in 4 mL of a 97:3 v/v (volume/volume) mixture of acetone and dimethyl sulfoxide to obtain concentrated stock solutions. […] The stock solutions obtained were diluted with a 99.9:0.1 mixture of water and Tween® […] surfactant to obtain application solutions of known concentration. The solutions containing the highest concentration to be tested were prepared by diluting 2 mL aliquots of the stock solution with 15 mL of the mixture and lower concentrations were prepared by serial dilution of the stock solution. A 2.5 mL aliquot of each solution of known concentration was sprayed evenly onto the soil surface (113 sq. cm) of each seeded pot using a Cornwall 5.0 mL glass syringe fitted with a TeeJet TN-3 hollow cone nozzle to obtain thorough coverage of the soil in each pot. Control pots were sprayed in the same manner with the aqueous mixture.
(§6) The treated pots and control pots were placed in a greenhouse maintained with an approximate 15 hr photoperiod and temperatures of about 23-29° C. during the day and 22-28° C. during the night. Nutrients and water were added on a regular basis and supplemental lighting was provided with overhead metal halide 1000-Watt lamps as necessary. The water was added by top-irrigation. After 3 weeks the condition of the test plants that germinated and grew as compared with that of the untreated plants that germinated and grew was determined visually and scored on a scale of 0 to 100 percent where 0 corresponds to no injury and 100 corresponds to complete kill or no germination.

[5] = tested on: velvetleaf (Abutilon theophrasti); assay: Preemergence herbicidal activity; type: in vivo; details: Abutilon theophrasti, 504 h, Table 6 (headed Post-emergent; text: preemergence), after 3 weeks, read-out: % Control ABUTH; for pest or weed control at 70 ppm: rate 70 ppm; for pest or weed control at 560 ppm: rate 560 ppm
Excerpt: as §4, §5, §6

[6] = tested on: morningglory (Ipomoea hederacea); assay: Preemergence herbicidal activity; type: in vivo; details: Ipomoea, 504 h, Table 6 (headed Post-emergent; text: preemergence), after 3 weeks, read-out: % Control IPOHE; for pest or weed control at 70 ppm: rate 70 ppm; for pest or weed control at 560 ppm: rate 560 ppm
Excerpt: as §4, §5, §6

Row | SMILES | melting point | pest or weed control at 250 ppm [1] [%] | pest or weed control at 250 ppm [2] [%] | pest or weed control at 250 ppm [3] [%] | pest or weed control at 280 ppm ([4]; rate 280 ppm) [%] | pest or weed control at 280 ppm ([5]; rate 280 ppm) [%] | pest or weed control at 280 ppm ([6]; rate 280 ppm) [%] | pest or weed control at 70 ppm [4] [%] | pest or weed control at 70 ppm [5] [%] | pest or weed control at 70 ppm [6] [%] | pest or weed control at 560 ppm [4] [%] | pest or weed control at 560 ppm [5] [%] | pest or weed control at 560 ppm [6] [%] | pest or weed control at 125 ppm [1] [%] | pest or weed control at 125 ppm [2] [%] | pest or weed control at 125 ppm [3] [%]
1 | CCCCCOC(=O)c1nc(Cl)cc(N)c1Cl [Compound 8, n-pentyl 4-amino-3,6-dichloropyridine-2-carboxylate] | 71 to 73 °C | 100 | 90 | 100 | 100 | 100 | 100 | – | – | – | – | – | – | – | – | –
2 | COc1ccc(Oc2cc(N)c(Cl)c(C(=O)O)n2)cc1 [Compound 49, 4-amino-3-chloro-6-(4-methoxyphenoxy)-pyridine-2-carboxylic acid] | 174 °C | 60 | 0 | 70 | – | – | – | 0 | 0 | 0 | – | – | – | – | – | –
3 | CCCCNc1cc(Cl)nc(C(=O)O)c1Cl [Compound 29, 4-N-butylamino-3,6-dichloropyridine-2-carboxylic acid] | 96 to 97 °C | 95 | 90 | 90 | – | – | – | – | – | – | 100 | 100 | 100 | – | – | –
4 | O=C(O)c1nc(Cl)cc(N2CCCC2)c1Cl [Compound 36, 4-pyrrolidino-3,6-dichloropyridine-2-carboxylic acid] | 153 to 155 °C | – | – | – | – | – | – | – | – | – | 80 | 95 | 80 | 50 | 40 | 80
5 | COc1c(Cl)nc(C(=O)O)c(Cl)c1N [Compound 22, 4-Amino-3,6-dichloro-5-methoxypyridine-2-carboxylic acid] | 154 to 156 °C | 80 | 90 | 100 | – | – | – | – | – | – | 100 | 100 | 100 | – | – | –
6 | Nc1cc(Br)nc(C(=O)O)c1Br [Compound 17, 4-Amino-3,6-dibromopyridine-2-carboxylic acid] | 205 °C (dec.) | 100 | 80 | 100 | – | – | – | – | – | – | 100 | 100 | 100 | – | – | –
7 | O=C(O)c1nc(Cl)cc([N+](=O)[O-])c1Cl [Compound 39, 4-Nitro-3,6-dichloropyridine-2-carboxylic acid] | 192 to 193 °C | – | – | – | – | – | – | – | – | – | 100 | 100 | 100 | 85 | 30 | 90
8 | Cc1ccc(Oc2cc(N)c(Cl)c(C(=O)O)n2)cc1 [Compound 50, 4-amino-3-chloro-6-(4-methylphenoxy)-pyridine-2-carboxylic acid] | 173 °C | 60 | 0 | 70 | – | – | – | 0 | 0 | 0 | – | – | – | – | – | –
